Converted amounts (≈) assume the structure as drawn. Read-outs that look alike come from different tables or passages of the source.
How the values were obtained:
Caco-2 permeability = format: in vitro ADME; conditions: human; for Papp A→B: AtoB; for Papp B→A: BtoA
Description: Several model systems are available, employing monolayers of various cell types, for evaluation of active transport of pharmaceutically active substances. For example, monolayers of Caco-2 intestinal epithelial cells can be used to evaluate active transport of substances between the intestine and the bloodstream. When plated on a surface which allows the flow of material from apical to basolateral and vice versa, such cells form a biological membrane which can be used to simulate physiological absorption and bio-availability. In another example, mouse brain capillary endothelial cell (MBEC) lines have been established to evaluate active transport in and out of the central nervous system. Another example of such cells is HT29 human colon carcinoma cells. Further, monolayers expressing particular transporter proteins can be established using transfected cells. For example, Sasaki et al (2002) J. Biol. Chem. 8:6497 used a double-transfected Madin-Darby canine kidney cell monolayer to study transport of organic anions.

Protein binding = format: in vitro ADME; conditions: human, human serum components
Experimental: In general, protein binding is assessed by measuring the capacity of molecules of the invention to bind to one or more human serum components or mimics thereof. In one embodiment, suitable functional residues may be identified by screening of surfaces comprising such residues for their ability to resist adsorption of serum components, including, but not limited to serum proteins, and preferably human serum proteins. Candidate residues can be screened directly by attaching them to a solid support and testing the support for protein resistance. Alternatively, candidate residues are incorporated into, or linked to molecules of pharmaceutical interest. Such compounds may be synthesized on a solid support, or bound to a solid support after synthesis. In a non-limiting example of a direct binding assay, immobilized candidate functional residues or molecules incorporating such residues are tested for their ability to bind serum components. The serum components can be labeled with a signaling moiety for detection, or a labeled secondary reagent that binds to such serum components can be used.

Solubility = format: physicochemical
PAMPA permeability = format: in vitro ADME; conditions: for Papp: PAMPA
Non-specific binding = format: in vitro ADME
Cytotoxicity GC50 = format: cell-based
PDE-1 = assay: Phosphodiesterase inhibition PDE-1; format: biochemical
Experimental: (§1) Phosphodiesterase inhibition was determined by methods known to one of skill in the art.

PDE-6 = assay: Phosphodiesterase inhibition PDE-6; format: biochemical
Experimental: as §1

PDE-3 = assay: Phosphodiesterase inhibition PDE-3; format: biochemical
Experimental: as §1

Cytotoxicity LC50 = format: cell-based; conditions: Chronic; read-out: Cytotox LC50 Chronic
PDE5 [1] = target: T1, PDE5 (Homo sapiens, UniProt O76074); assay: Phosphodiesterase inhibition IC50 (Table 1); format: biochemical; conditions: PDE5 inhibitor scaffold Compound B
Experimental: as §1

RLM half-life = format: in vitro ADME; conditions: rat, liver microsomes, read-out: RLM T1/2
PDE5 [2] = target: T1, PDE5; assay: Phosphodiesterase inhibition PDE-5 human; format: biochemical
Experimental: as §1

[3] = pH 2.7, aqueous buffer, pH 2.7, read-out: Solubility pH 2.7
[4] = pH 7.4, aqueous buffer, pH 7.4, read-out: Solubility pH 7.4

Structure (SMILES) | Papp A→B (Caco-2 permeability) | Papp B→A (Caco-2 permeability) | fraction unbound (Protein binding) | solubility (Solubility; [3]) | solubility (Solubility; [4]) | Papp (PAMPA permeability; Hex, read-out: PAMPA Hex) | Non-Spec Binding (Non-specific binding) | Cytotox GC50 (Cytotoxicity GC50) | IC50 (PDE-1) | IC50 (PDE-6) | IC50 (PDE-3) | Papp (PAMPA permeability; Lec, read-out: PAMPA Lec) | CC50 (Cytotoxicity LC50) | IC50 (PDE5 [1]) | half-life (RLM half-life) | IC50 (PDE5 [2]) | Solubility pH 2.7 (Solubility; pH 2.7) | Solubility pH 7.4 (Solubility; pH 7.4) | PAMPA Hex (PAMPA permeability; Hex)
CCCc1nc(C)c2c(=O)[nH]c(-c3cc(S(=O)(=O)N(C)[C@@H](C)C(=O)N(C)C)ccc3OCC)nn12 [Compound 12] | 33.4 ×10⁻⁶ cm/s | 50.4 ×10⁻⁶ cm/s | 0.058 | 96 µg/mL (≈ 190 µM) | 100 µg/mL (≈ 198 µM) | 13.9 ×10⁻⁶ cm/s | 30.7% | 99300 nM | – | – | – | – | – | – | – | – | – | – | –
CCCc1nc(C)c2c(=O)[nH]c(-c3cc(S(=O)(=O)N(C)CC(=O)N(C)C)ccc3OCC)nn12 [Compound 1] | 17.5 ×10⁻⁶ cm/s | 48.9 ×10⁻⁶ cm/s | 0.086 | > 100 µg/mL | 96.1 µg/mL (≈ 196 µM) | 5.49 ×10⁻⁶ cm/s | 11.07% | 76700 nM | 25 nM | 3.5 nM | 986 nM | 0.128 ×10⁻⁶ cm/s | – | – | – | – | – | – | –
CCCc1nc(C)c2c(=O)[nH]c(-c3cc(S(=O)(=O)N(C)CC(=O)N(CC)CC)ccc3OCC)nn12 [Compound 8] | 42 ×10⁻⁶ cm/s | 77.4 ×10⁻⁶ cm/s | 0.024 | > 100 µg/mL | > 100 µg/mL | 21.8 ×10⁻⁶ cm/s | 19% | – | – | – | – | – | – | – | – | – | – | – | –
CCCc1nc(C)c2c(=O)[nH]c(-c3cc(S(=O)(=O)N(C)CC(=O)N(C)CCN(C)C)ccc3OCC)nn12 [Compound 9] | 2.33 ×10⁻⁶ cm/s | 11.3 ×10⁻⁶ cm/s | 0.246 | > 100 µg/mL | > 100 µg/mL | 0.03 ×10⁻⁶ cm/s | 9.8% | – | – | – | – | – | – | – | – | – | – | – | –
CCCc1nc(C)c2c(=O)[nH]c(-c3cc(S(=O)(=O)N(C)[C@H](C)C(=O)NC)ccc3OCC)nn12 [Compound 14] | – | – | – | 62.6 µg/mL (≈ 128 µM) | 64 µg/mL (≈ 130 µM) | 0.47 ×10⁻⁶ cm/s | – | 88000 nM | – | – | – | – | 100000 nM | – | – | – | – | – | –
CCCc1nc(C)c2c(=O)[nH]c(-c3cc(S(=O)(=O)N(C)CC(=O)NC)ccc3OCC)nn12 [Compound 21] | 5.15 ×10⁻⁶ cm/s | 31.4 ×10⁻⁶ cm/s | – | > 100 µg/mL | > 100 µg/mL | 0.24 ×10⁻⁶ cm/s | – | – | – | – | – | – | – | – | – | – | – | – | –
CCCc1nc(C)c2c(=O)[nH]c(-c3cc(S(=O)(=O)N(C)[C@@H](C)C(=O)NC)ccc3OCC)nn12 [Compound 13] | – | – | – | 69.4 µg/mL (≈ 141 µM) | 74.6 µg/mL (≈ 152 µM) | 0.42 ×10⁻⁶ cm/s | – | 94000 nM | – | – | – | – | 100000 nM | – | – | – | – | – | –
CCCc1nc(C)c2c(=O)[nH]c(-c3cc(S(=O)(=O)NC)ccc3OCC)nn12 [Compound 20] | 24.3 ×10⁻⁶ cm/s | 53 ×10⁻⁶ cm/s | 0.0397 | > 100 µg/mL | > 100 µg/mL | 0.37 ×10⁻⁶ cm/s | 16.23% | 100000 nM | 28 nM | 4.18 nM | 1010 nM | 0.00384 ×10⁻⁶ cm/s | 100000 nM | 0.24 nM | 1 h | 0.243 nM | – | – | –
CCCc1nc(C)c2c(=O)[nH]c(-c3cc(S(=O)(=O)N(C)C(C)(C)C(=O)NC)ccc3OCC)nn12 [Compound 15] | 6.8 ×10⁻⁶ cm/s | 34.9 ×10⁻⁶ cm/s | – | – | – | 0.25 ×10⁻⁶ cm/s | – | 95000 nM | – | – | – | – | 100000 nM | – | – | – | – | – | –
CCCc1nc(C)c2c(=O)[nH]c(-c3cc(S(=O)(=O)N(CC)CC(=O)N(CC)CC)ccc3OCC)nn12 [Compound 10] | – | – | – | 77.9 µg/mL (≈ 146 µM) | 78.5 µg/mL (≈ 147 µM) | 67 ×10⁻⁶ cm/s | – | – | – | – | – | – | – | – | – | – | – | – | –
CCCc1nc(C)c2c(=O)[nH]c(-c3cc(S(=O)(=O)N(C)CC(=O)N4CCOCC4)ccc3OCC)nn12 [Compound 6] | 11.2 ×10⁻⁶ cm/s | 55.1 ×10⁻⁶ cm/s | 0.084 | > 100 µg/mL | > 100 µg/mL | 0.78 ×10⁻⁶ cm/s | 7.3% | – | – | – | – | – | – | – | – | – | – | – | –
CCCc1nc(C)c2c(=O)[nH]c(-c3cc(S(=O)(=O)N(C)[C@H](C)C(=O)N(C)C)ccc3OCC)nn12 [Compound 2] | 33.3 ×10⁻⁶ cm/s | 61.3 ×10⁻⁶ cm/s | 0.032 | > 100 µg/mL | > 100 µg/mL | 18.2 ×10⁻⁶ cm/s | 20.7% | 94600 nM | – | – | – | – | – | – | – | – | – | – | –
CCCc1nc(C)c2c(=O)[nH]c(-c3cc(S(=O)(=O)NC(C)C(=O)N(C)C)ccc3OCC)nn12 (stereo not shown) [Compound 18] | – | – | – | – | – | – | – | 100000 nM | – | – | – | – | 100000 nM | 0.36 nM | – | 0.36 nM | 70.3 ug/mL | 75.75 ug/mL | 0.18 10^−6 cm/s
CCCc1nc(C)c2c(=O)[nH]c(-c3cc(S(=O)(=O)N(C)CC(=O)N4CCN(C)CC4)ccc3OCC)nn12 [Compound 7] | 4.35 ×10⁻⁶ cm/s | 35.6 ×10⁻⁶ cm/s | 0.155 | > 100 µg/mL | > 100 µg/mL | 0.18 ×10⁻⁶ cm/s | 2.6% | – | – | – | – | – | – | – | – | – | – | – | –
CCCc1nc(C)c2c(=O)[nH]c(-c3cc(S(=O)(=O)NC(C)C(=O)N(C)C)ccc3OCC)nn12 (stereo not shown) [Compound 17] | – | – | – | 70 µg/mL (≈ 143 µM) | 78.4 µg/mL (≈ 160 µM) | 0.26 ×10⁻⁶ cm/s | – | 100000 nM | – | – | – | – | 100000 nM | 0.66 nM | – | 0.66 nM | – | – | –
CCCc1nc(C)c2c(=O)[nH]c(-c3cc(S(=O)(=O)N(C)CC(=O)N(C)CC(=O)N(C)C)ccc3OCC)nn12 [Compound 4] | 2.97 ×10⁻⁶ cm/s | 25.9 ×10⁻⁶ cm/s | 0.18 | 112 µg/mL (≈ 199 µM) | 109 µg/mL (≈ 194 µM) | 0.47 ×10⁻⁶ cm/s | 7% | – | – | – | – | 0.056 ×10⁻⁶ cm/s | – | – | – | – | – | – | –
CCCc1nc(C)c2c(=O)[nH]c(-c3cc(S(=O)(=O)NC(C)(C)C(=O)N(C)C)ccc3OCC)nn12 [Compound 19] | 2.43 ×10⁻⁶ cm/s | 33 ×10⁻⁶ cm/s | – | > 100 µg/mL | 7.1 µg/mL (≈ 14.1 µM) | 0.17 ×10⁻⁶ cm/s | – | 100000 nM | – | – | – | – | 100000 nM | – | – | – | – | – | –
CCCc1nc(C)c2c(=O)[nH]c(-c3cc(S(=O)(=O)N(C)C4(C(=O)N(C)C)CC4)ccc3OCC)nn12 [Compound 16] | – | – | – | 74.7 µg/mL (≈ 145 µM) | 82.5 µg/mL (≈ 160 µM) | 3.41 ×10⁻⁶ cm/s | – | 100000 nM | – | – | – | – | 100000 nM | – | – | – | – | – | –
CCCc1nc(C)c2c(=O)[nH]c(-c3cc(S(=O)(=O)N(C)C(C)(C)C(=O)N(C)C)ccc3OCC)nn12 [Compound 3] | 28.9 ×10⁻⁶ cm/s | 58.5 ×10⁻⁶ cm/s | 0.076 | > 100 µg/mL | > 100 µg/mL | 9.11 ×10⁻⁶ cm/s | 14.3% | 100000 nM | 10 nM | 1.7 nM | 412 nM | – | – | – | – | – | – | – | –
CCCc1nc(C)c2c(=O)[nH]c(-c3cc(S(=O)(=O)N4CCCC4C(=O)N(C)C)ccc3OCC)nn12 (stereo not shown) [Compound 5] | 19.4 ×10⁻⁶ cm/s | 60.2 ×10⁻⁶ cm/s | – | 100 µg/mL (≈ 194 µM) | 93 µg/mL (≈ 180 µM) | 13.2 ×10⁻⁶ cm/s | – | – | – | – | – | – | – | – | – | – | – | – | –
CCCc1nc(C)c2c(=O)[nH]c(-c3cc(S(=O)(=O)N(C)CC(=O)N(C)CCOC)ccc3OCC)nn12 [Compound 11] | 11.4 ×10⁻⁶ cm/s | 63.3 ×10⁻⁶ cm/s | 0.042 | 66.7 µg/mL (≈ 125 µM) | 70.9 µg/mL (≈ 133 µM) | 1.45 ×10⁻⁶ cm/s | 0% | – | – | – | – | – | – | 0.15 nM | – | 0.15 nM | – | – | –
